Measured values reported in PubChem BioAssay AID1963427 (Molecular Pharmacology Branch, DTP, NCI, 2024).

Tested on: 317291-083-R-J1-PDC complex spheroid growth
Experiment: Anticancer human tumor 317291-083-R-J1-PDC patient-derived soft tissue sarcoma cell line growth inhibition [Asc]
Conditions: for IC50: curve of first compound; for viability, T/C: stronger effect = lower value
Method in brief: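 Complex solid-tumor spheroids incorporating human endothelial and mesenchymal stem cells received single agents or combinations over half-log dilution ranges anchored to clinical Cmax.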

[1] = second compound 0.0316 µM, first compound 0.0316 µM
[2] = second compound 0.0316 µM, first compound 0.1 µM
[3] = second compound 0.0316 µM, first compound 0.316 µM
[4] = second compound 0.0316 µM, first compound 1 µM
[5] = second compound 0.1 µM, first compound 0.0316 µM
[6] = second compound 0.1 µM, first compound 0.1 µM
[7] = second compound 0.1 µM, first compound 0.316 µM
[8] = second compound 0.1 µM, first compound 1 µM
[9] = second compound 0.316 µM, first compound 0.0316 µM
[10] = second compound 0.316 µM, first compound 0.1 µM
[11] = second compound 0.316 µM, first compound 0.316 µM
[12] = second compound 0.316 µM, first compound 1 µM
[13] = second compound 1 µM, first compound 0.0316 µM
[14] = second compound 1 µM, first compound 0.1 µM
[15] = second compound 1 µM, first compound 0.316 µM
[16] = second compound 1 µM, first compound 1 µM
[17] = second compound 3.16 µM, first compound 0.0316 µM
[18] = second compound 3.16 µM, first compound 0.1 µM
[19] = second compound 3.16 µM, first compound 0.316 µM
[20] = second compound 3.16 µM, first compound 1 µM
[21] = second compound 10 µM, first compound 0.0316 µM
[22] = second compound 10 µM, first compound 0.1 µM
[23] = second compound 10 µM, first compound 0.316 µM
[24] = second compound 10 µM, first compound 1 µM
[25] = second compound 0.0316 µM, first compound 0.00316 µM
[26] = second compound 0.0316 µM, first compound 0.01 µM
[27] = second compound 0.1 µM, first compound 0.00316 µM
[28] = second compound 0.1 µM, first compound 0.01 µM
[29] = second compound 0.316 µM, first compound 0.00316 µM
[30] = second compound 0.316 µM, first compound 0.01 µM
[31] = second compound 1 µM, first compound 0.00316 µM
[32] = second compound 1 µM, first compound 0.01 µM
[33] = second compound 3.16 µM, first compound 0.00316 µM
[34] = second compound 3.16 µM, first compound 0.01 µM
[35] = second compound 10 µM, first compound 0.00316 µM
[36] = second compound 10 µM, first compound 0.01 µM
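Also: compound exposure lasted seven days after spheroids formed for three days.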
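For viability, T/C in this document: 100% = DMSO vehicle control wells.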

C=CC(=O)N1CCN(c2nc(=O)n(-c3c(C)ccnc3C(C)C)c3nc(-c4c(O)cccc4F)c(F)cc23)C(C)C1 (stereo unspecified) + Cc1c(S(C)(=O)=O)c(-c2cc(F)cc(N3CCN(c4ccc(NS(=O)(=O)c5ccc(NC(CCN6CCC(C(=O)OCCCP(=O)(O)O)CC6)CSc6ccccc6)c(S(=O)(=O)C(F)(F)F)c5)cc4)CC3)c2)c(-c2ccc(Cl)cc2)n1C(C)C
IC50 (second compound 0.0316 µM): > 10000 nM | IC50 (second compound 0.1 µM): > 10000 nM | IC50 (second compound 0.316 µM): > 10000 nM | IC50 (second compound 1 µM): > 10000 nM | IC50 (second compound 3.16 µM): 8050 nM | IC50 (second compound 10 µM): 9460 nM | viability, T/C [1]: 108% | viability, T/C [2]: 86.8% | viability, T/C [3]: 108% | viability, T/C [4]: 98.3% | viability, T/C (second compound 0.0316 µM, first compound 3.16 µM): 98.3% | viability, T/C (second compound 0.0316 µM, first compound 10 µM): 66.1% | viability, T/C [5]: 84.4% | viability, T/C [6]: 97.7% | viability, T/C [7]: 86.1% | viability, T/C [8]: 86.5% | viability, T/C (second compound 0.1 µM, first compound 3.16 µM): 100% | viability, T/C (second compound 0.1 µM, first compound 10 µM): 60.1% | viability, T/C [9]: 91% | viability, T/C [10]: 102% | viability, T/C [11]: 85.3% | viability, T/C [12]: 90.6% | viability, T/C (second compound 0.316 µM, first compound 3.16 µM): 83.9% | viability, T/C (second compound 0.316 µM, first compound 10 µM): 59.7% | viability, T/C [13]: 81.5% | viability, T/C [14]: 84.3% | viability, T/C [15]: 96.2% | viability, T/C [16]: 80.2% | viability, T/C (second compound 1 µM, first compound 3.16 µM): 81.7% | viability, T/C (second compound 1 µM, first compound 10 µM): 51.7% | viability, T/C [17]: 82.4% | viability, T/C [18]: 70.7% | viability, T/C [19]: 87.8% | viability, T/C [20]: 74.7% | viability, T/C (second compound 3.16 µM, first compound 3.16 µM): 79.5% | viability, T/C (second compound 3.16 µM, first compound 10 µM): 43.2% | viability, T/C [21]: 87.1% | viability, T/C [22]: 90.6% | viability, T/C [23]: 93.2% | viability, T/C [24]: 88.6% | viability, T/C (second compound 10 µM, first compound 3.16 µM): 96.6% | viability, T/C (second compound 10 µM, first compound 10 µM): 47.9%

COc1c(OCCCN2CCOCC2)ccc2c3n(c(=NC(=O)c4cnc(N)nc4)nc12)CCN3 + Cc1c(S(C)(=O)=O)c(-c2cc(F)cc(N3CCN(c4ccc(NS(=O)(=O)c5ccc(NC(CCN6CCC(C(=O)OCCCP(=O)(O)O)CC6)CSc6ccccc6)c(S(=O)(=O)C(F)(F)F)c5)cc4)CC3)c2)c(-c2ccc(Cl)cc2)n1C(C)C
IC50 (second compound 0.0316 µM): 104 nM | IC50 (second compound 0.1 µM): 88 nM | IC50 (second compound 0.316 µM): 88.4 nM | IC50 (second compound 1 µM): 78 nM | IC50 (second compound 3.16 µM): 62.9 nM | IC50 (second compound 10 µM): 95.3 nM | viability, T/C [25]: 116% | viability, T/C [26]: 116% | viability, T/C [1]: 78% | viability, T/C [2]: 52.9% | viability, T/C [3]: 27% | viability, T/C [4]: 13% | viability, T/C [27]: 106% | viability, T/C [28]: 76.6% | viability, T/C [5]: 62.5% | viability, T/C [6]: 54.7% | viability, T/C [7]: 28.1% | viability, T/C [8]: 13.5% | viability, T/C [29]: 91.3% | viability, T/C [30]: 85.5% | viability, T/C [9]: 69.7% | viability, T/C [10]: 44.7% | viability, T/C [11]: 30.1% | viability, T/C [12]: 11.7% | viability, T/C [31]: 86.2% | viability, T/C [32]: 88% | viability, T/C [13]: 63.2% | viability, T/C [14]: 44.8% | viability, T/C [15]: 28.2% | viability, T/C [16]: 12.1% | viability, T/C [33]: 65.6% | viability, T/C [34]: 54.8% | viability, T/C [17]: 60.9% | viability, T/C [18]: 43.7% | viability, T/C [19]: 21.3% | viability, T/C [20]: 9.02% | viability, T/C [35]: 100% | viability, T/C [36]: 90.2% | viability, T/C [21]: 70.7% | viability, T/C [22]: 54.2% | viability, T/C [23]: 19.2% | viability, T/C [24]: 7.2%

NC1CCC(NC2CC2c2ccccc2)CC1 (stereo unspecified) + Cc1c(S(C)(=O)=O)c(-c2cc(F)cc(N3CCN(c4ccc(NS(=O)(=O)c5ccc(NC(CCN6CCC(C(=O)OCCCP(=O)(O)O)CC6)CSc6ccccc6)c(S(=O)(=O)C(F)(F)F)c5)cc4)CC3)c2)c(-c2ccc(Cl)cc2)n1C(C)C
IC50 (second compound 0.0316 µM): > 100 nM | IC50 (second compound 0.1 µM): > 100 nM | IC50 (second compound 0.316 µM): > 100 nM | IC50 (second compound 1 µM): > 100 nM | IC50 (second compound 3.16 µM): > 100 nM | IC50 (second compound 10 µM): > 100 nM | viability, T/C (second compound 0.0316 µM, first compound 0.000316 µM): 120% | viability, T/C (second compound 0.0316 µM, first compound 0.001 µM): 87.3% | viability, T/C [25]: 98.2% | viability, T/C [26]: 99% | viability, T/C [1]: 106% | viability, T/C [2]: 86.5% | viability, T/C (second compound 0.1 µM, first compound 0.000316 µM): 107% | viability, T/C (second compound 0.1 µM, first compound 0.001 µM): 78.9% | viability, T/C [27]: 90.2% | viability, T/C [28]: 76.9% | viability, T/C [5]: 77.6% | viability, T/C [6]: 83.9% | viability, T/C (second compound 0.316 µM, first compound 0.000316 µM): 93.9% | viability, T/C (second compound 0.316 µM, first compound 0.001 µM): 100% | viability, T/C [29]: 80.2% | viability, T/C [30]: 106% | viability, T/C [9]: 109% | viability, T/C [10]: 90.5% | viability, T/C (second compound 1 µM, first compound 0.000316 µM): 73.3% | viability, T/C (second compound 1 µM, first compound 0.001 µM): 75% | viability, T/C [31]: 93% | viability, T/C [32]: 74.3% | viability, T/C [13]: 107% | viability, T/C [14]: 74.1% | viability, T/C (second compound 3.16 µM, first compound 0.000316 µM): 72.7% | viability, T/C (second compound 3.16 µM, first compound 0.001 µM): 81.7% | viability, T/C [33]: 79% | viability, T/C [34]: 69.9% | viability, T/C [17]: 87.6% | viability, T/C [18]: 76% | viability, T/C (second compound 10 µM, first compound 0.000316 µM): 95.6% | viability, T/C (second compound 10 µM, first compound 0.001 µM): 91.9% | viability, T/C [35]: 97.8% | viability, T/C [36]: 87.8% | viability, T/C [21]: 94% | viability, T/C [22]: 73.7%
